Experimental data taken from patent US10138222B2, “Substituted benzamides as RIPK2 inhibitors” (Boehringer Ingelheim International GmbH, priority 2016, dated 2018).

Molecular target: RIPK2 (Homo sapiens (Human), UniProt O43353)
Assay: RIPK2 inhibition, ADP-Glo Kinase Assay
Assay type: biochemical
Settings: 8His-RIPK2 FL enzyme 8 nM, ATP 5 μM, 15 minutes pre-incubation, 60 minutes at 37° C., luminescence
Method in brief: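 Full-length 8His-RIPK2 (8 nM) preincubated 15 min at RT with compound (1% DMSO), then 5 μM ATP added for 60 min at 37 °C in HEPES pH 7.5 buffer with Mg2+/Mn2+. ADP measured by ADP-Glo luminescence; activity expressed as % of vehicle control, no-enzyme wells as low control.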

Sequence of RIPK2 (O43353 whole entry): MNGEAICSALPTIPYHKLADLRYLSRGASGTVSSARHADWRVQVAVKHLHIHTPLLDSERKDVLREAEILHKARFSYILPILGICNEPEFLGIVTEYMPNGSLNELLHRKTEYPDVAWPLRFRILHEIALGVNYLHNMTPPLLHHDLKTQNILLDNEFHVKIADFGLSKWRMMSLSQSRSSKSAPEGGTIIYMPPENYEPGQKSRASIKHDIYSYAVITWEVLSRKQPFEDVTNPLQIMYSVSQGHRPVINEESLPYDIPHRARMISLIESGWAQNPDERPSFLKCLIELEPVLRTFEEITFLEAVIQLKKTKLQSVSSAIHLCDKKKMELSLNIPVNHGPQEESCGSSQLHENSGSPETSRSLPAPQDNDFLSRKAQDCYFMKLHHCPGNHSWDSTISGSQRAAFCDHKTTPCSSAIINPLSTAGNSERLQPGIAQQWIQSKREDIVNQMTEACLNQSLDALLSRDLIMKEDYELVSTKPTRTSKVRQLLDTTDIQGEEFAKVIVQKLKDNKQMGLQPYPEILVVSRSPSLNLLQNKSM

SMILES | IC50 [nM]
Cc1ccc(C(=O)NC2CC2)cc1-c1cnn(-c2cncc(OCC3CC3)c2)c1 [Example 146, N-cyclopropyl-3-{1-[5-(cyclopropylmethoxy)pyridin-3-yl]-1H-pyrazol-4-yl}-4-methyl-benzamide] | 6.1
Cc1ccc(C(=O)NC2CC2)cc1-c1cnn(-c2cncc(OCC3CCOCC3)c2)c1 [Example 147, N-cyclopropyl-4-methyl-3-{1-[5-(oxan-4-ylmethoxy)pyridin-3-yl]-1H-pyrazol-4-yl}benzamide] | 8.1
Cc1ccc(C(=O)NC2CC2)cc1-c1cnn(-c2cncc(OC3CCCC3)c2)c1 [Example 148, 3-{1-[5-(cyclopentyloxy)pyridin-3-yl]-1H-pyrazol-4-yl}-N-cyclopropyl-4-methylbenzamide] | 12
CC(=O)N1CCC(Oc2cncc(-n3cc(-c4cc(C(=O)NC5CC5)ccc4C)cn3)c2)CC1 [Example 149, 3-(1-{5-[(1-acelylpiperidin-4-yl)oxy]pyridin-3-yl}-1H-pyrazol-4-yl)-N-cyclopropyl-4-methyl-benzamide] | 8.9
Cc1ccc(C(=O)NC2CC2)cc1-c1cnn(-c2cncc(OC[C@H]3CCCO3)c2)c1 [Example 150, N-cyclopropyl-4-methyl-3-(1-{5-[(2R)-oxolan-2-ylmethoxy]pyridin-3-yl}-1H-pyrazol-4-yl) benzamide] | 7
Cc1ccc(C(=O)NC2CC2)cc1-c1cnn(-c2cncc(OC3CCC(C#N)C3)c2)c1 (stereo not shown) [Example 151, 3-(1-{5-[(3-cyanocyclopentyl)oxy]pyridin-3-yl}-1H-pyrazol-4-yl)-N-cyclopropyl-4-methylbenzamide] | 6.4
Cc1ccc(C(=O)NC2CC2)cc1-c1cnn(-c2cncc(OC3CC(CO)(CO)C3)c2)c1 [Example 152, 3-(1-{5-[3,3-bis(hydroxymethyl)cyclobutoxy]pyridin-3-yl}-1H-pyrazol-4-yl)-N-cyclopropyl-4-methylbenzamide] | 4.2
Cc1ccc(C(=O)NC2CC2)cc1-c1cnn(-c2cncc(NC3CCN(C(C)CCO)CC3)c2)c1 (stereo not shown) [Example 153, N-cyclopropyl-3-[1-(5-{[1-(4-hydroxybutan-2-yl)piperidin-4-yl]amino}pyridin-3-yl)-1H-pyrazol-4-yl]-4-methylbenzamide] | 1.6
Cc1ccc(C(=O)NC2CC2)cc1-c1cnn(-c2cncc(NC3CCN(CC4CCOC4)CC3)c2)c1 (stereo not shown) [Example 154, N-cyclopropyl-4-methyl-3-[1-(5-{[1-(oxolan-3-ylmethyl)piperidin-4-yl]amino}pyridin-3-yl)-1H-pyrazol-4-yl]benzamide] | 1.8
Cc1ccc(C(=O)NC2CC2)cc1-c1cnn(-c2cncc(NC3CCN(CC4CCOCC4)CC3)c2)c1 [Example 155, N-cyclopropyl-4-methyl-3-[1-(5-{[1-(oxan-4-ylmethyl)piperidin-4-yl]amino}pyridin-3-yl)-1H-pyrazol-4-yl]benzamide] | 1.7
COCC(C)N1CCC(Nc2cncc(-n3cc(-c4cc(C(=O)NC5CC5)ccc4C)cn3)c2)CC1 (stereo not shown) [Example 156, N-cyclopropyl-3-[1-(5-{[1-(1-methoxypropan-2-yl)piperidin-4-yl]amino}pyridin-3-yl)-1H-pyrazol-4-yl]-4-methylbenzamide] | 1.6
Cc1ccc(C(=O)NC2CC2)cc1-c1cnn(-c2cncc(NC3CCN(C(C)CO)CC3)c2)c1 (stereo not shown) [Example 157, N-cyclopropyl-3-[1-(5-{[1-(1-hydroxypropan-2-yl)piperidin-4-yl]amino}pyridin-3-yl)-1H-pyrazol-4-yl]-4-methylbenzamide] | 1.9
CC(=O)N1CCC(N2CCC(Nc3cncc(-n4cc(-c5cc(C(=O)NC6CC6)ccc5C)cn4)c3)CC2)CC1 [Example 158, 3-[1-(5-{[1-(1-acetylpiperidin-4-yl)piperidin-4-yl]amino}pyridin-3-yl)-1H-pyrazol-4-yl]-N-cyclopropyl-4-methylbenzamide] | 1.2
